Reference: patent publication US11667651B2, “Aminopyridine derivatives as phosphatidylinositol phosphate kinase inhibitors” (HiberCell, Inc., priority 2017, dated 2023)

Target: T1, PIP4K2A (Homo sapiens, UniProt P48426)
T1 sequence (P48426 1-406): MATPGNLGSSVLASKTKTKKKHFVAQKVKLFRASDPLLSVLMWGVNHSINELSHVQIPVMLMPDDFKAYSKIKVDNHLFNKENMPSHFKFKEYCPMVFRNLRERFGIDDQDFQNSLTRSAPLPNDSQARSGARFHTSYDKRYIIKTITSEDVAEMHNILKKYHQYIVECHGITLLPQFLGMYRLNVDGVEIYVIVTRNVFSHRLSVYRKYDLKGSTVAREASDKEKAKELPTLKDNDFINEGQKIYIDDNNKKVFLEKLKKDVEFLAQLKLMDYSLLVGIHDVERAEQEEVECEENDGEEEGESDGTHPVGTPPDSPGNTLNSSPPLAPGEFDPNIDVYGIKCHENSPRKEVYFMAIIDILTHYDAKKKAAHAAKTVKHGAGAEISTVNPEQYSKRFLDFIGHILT
Assay: Kinase Assay PIP4K2 A (Table 2)
Assay type: biochemical
Design: 4 nM PIP4K2A (full length protein, SignalChem); purchased SignalChem
Conditions: compounds listed under IC50 bins
Protocol: Dilution series of the compounds were prepared in DMSO at 100 times the final assay concentration (n1=n0/3 in 10 points). The compounds were further diluted to three times the assay concentration in assay buffer (20 mM MOPS pH 7.2, 25 mM magnesium chloride, 0.005% Tween 20). 6 μL of the diluted compounds were added to a 384 well assay plate followed by 9 μL of a mix consisting of 4 nM PIP4K2A (full length protein, SignalChem) and 100 μM PI(5)P diC8 (Tebu-Bio). Enzyme and compounds were pre-incubated at room temperature for 15 minutes.
Then 3 μL of a solution containing 60 μM ATP (Promega) in assay buffer was added to the wells containing compound and enzyme and mixing was performed by pipetting several times. The reaction was incubated at room temperature for 1 h. Then 18 μL of ADP-Glo™ Reagent (Promega) was added to stop the kinase reaction and deplete the unconsumed ATP, mixing was performed by pipetting several times. The plate was incubated at room temperature for 40 minutes before addition of 36 μL of Kinase Detection Reagent (Promega) to convert ADP to ATP and introduce luciferase and luciferin to detect ATP. The reaction was incubated at room temperature for 40 minutes before the luminescence was measured in a in a Victor 3V 1420 multilabel counter (Perkin Elmer).
Percent inhibition of the compounds as compared to dimethyl sulfoxide treated control samples was calculated. Compound concentration versus percent inhibition were fitted to generate IC50 values.

Row | Compound | IC50 [nM]
1 | CN(C)C(=O)c1ccc(-c2ccc(Nc3cnc4c(c3)N(S(C)(=O)=O)CCO4)nc2)cc1 [Example 217, N,N-dimethyl-4-(6-((1-(methylsulfonyl)-2,3-dihydro-1H-pyrido[2,3-b][1,4]oxazin-7-yl)amino)pyridin-3-yl)bnzamide] | 10 to 100
2 | CN(C)C(=O)Cc1cncc(Nc2ccc(-c3ccc(C(=O)N(C)C)cc3)cn2)c1 [Example 218, 4-(6-((5-(2-(dimethylamino)-2-oxoethyl)pyridin-3-yl)amino)pyridin-3-yl)-N,N-dimethylbenzamide] | 100 to 1000
3 | CNC(=O)c1ccc(-c2ccc(Nc3cncc(N4CCCC4=O)c3)nc2)cc1 [Example 219, N-methyl-4-(6-((5-(2-oxopyrrolidin-1-yl)pyridin-3-yl)amino)pyridin-3-yl)benzamide] | > 1000

Further lines, results first:

Row | IC50 [nM] | Compound
4 | > 1000 | CC(=O)Nc1ccc(-c2ccc(C(=O)N(C)C)cc2)cn1 [Example 220, 4-(6-acetamidopyridin-3-yl)-N,N-dimethylbenzamide]
5 | > 1000 | CN(C)C(=O)c1ccc(-c2ccc(Nc3cc[nH]c(=O)c3)nc2)cc1 [Example 221, N,N-dimethyl-4-(6-((2-oxo-1,2-dihydropyridin-4-yl)amino)pyridin-3-yl)benzamide]
6 | 100 to 1000 | CN(C)C(=O)c1ccc(-c2cnc(Nc3cccnc3)nc2)cc1 [Example 264, N,N-dimethyl-4-(2-(pyridin-3-ylamino)pyrimidin-5-yl)benzamide]
